Converted amounts (≈) assume the structure as drawn.
How the values were obtained:
[1] = system: Pseudomonas aeruginosa PAE853; experiment: FaAST with DAA-Cy5-2 probe; type: cell-based; settings: unit assumed
Description: (§1) With reference to the flow chart of the rapid detection method of antimicrobial susceptibility test based on FDAA metabolic markers shown in FIG. 3, FDAA is used for the detection of antimicrobial susceptibility test of alveolar lavage fluid. The specific experimental steps are as follows: • 1. Mix bronchoalveolar lavage fluid (BALF, 10 ml) of patients with hospital acquired pneumonia with cation regulated broth medium (CAMHB, 10 ml) of twice the concentration to prepare the bacterial fluid to be tested. • 2. Add 45 μl antibiotic solutions of different concentrations to the 96-well plate separately (see Table 1 for antibiotic concentration gradient settings). • 3. Add 50 μl of the bacterial solution prepared in step 1 to the 96-well plate and mix well. • 4. Add 5 μl of 10 mM Cy5-DAA probe (final concentration 0.15 mM, see FIG. 1 for its structure) into each well, mix well, and then cultivate in dark for 2 hours. • 5. Add 200 μl PBS solution for dilution, and then use flow cytometry to detect the fluorescence intensity of each sample.
(§2) The specific steps are the same as in Example 5. […] The minimum inhibitory concentration of antibiotics was obtained according to the fluorescence signal intensity of flow detection, and the statistical results are shown in Table 7.

[2] = system: Acinetobacter baumannii ABA16; experiment: FaAST with DAA-Cy5-2 probe; type: cell-based; settings: unit assumed
Description: as §1, §2

[3] = system: Acinetobacter baumannii ABA16; experiment: VITEK drug sensitivity test; type: cell-based; settings: unit assumed
S. aureus Sa22 = experiment: FaAST (FDAA metabolic labeling method); type: cell-based, Staphylococcus aureus; settings: unit assumed
Description: (§3) Take the colony to be tested that has been cultured overnight on the plate and fully mix it in normal saline to make a uniform bacterial solution. Dilute it into Cation-Adjusted Mueller Hinton Broth (CAMHB) culture medium to make a bacterial solution with OD600=0.05. • 2. Add 45 μl antibiotic solutions of different concentrations to 96-well plates (see Table 1 for antibiotic concentration gradient settings). • 3. Add 50 μl of the bacterial solution prepared in step 1 to the 96-well plate and mix well. • 4. Add 5 μl of 10 mM Cy5-DAA probe (final concentration 0.15 mM, see FIG. 1 for its structure) into each well, mix well, and cultivate in dark for 2 hours. • 5. Add 200 μl After PBS solution is diluted, the fluorescence intensity of each sample is detected by flow cytometry. The flow detection results are shown in FIG. 4-5, showing the curve of the change of antibiotic concentration gradient and fluorescence intensity. The MIC (minimum inhibitory concentration) can be obtained by referring to this curve.
(§4) Bacteria with antibiotic resistance are shown in bold in the following table.

S. aureus Sa23 = experiment: FaAST (FDAA metabolic labeling method); type: cell-based, Staphylococcus aureus; settings: unit assumed
Description: as §3, §4

S. aureus ATCC29213 = experiment: FaAST (FDAA metabolic labeling method); type: cell-based, Staphylococcus aureus; settings: unit assumed
Description: as §3, §4

E. coli Ec11 = experiment: FaAST (FDAA metabolic labeling); type: cell-based, Escherichia coli; settings: unit assumed
Method in brief: (§5)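 Bacteria diluted to OD600=0.05 in CAMHB were exposed to an antibiotic concentration series with Cy5-DAA probe […] for 2 h in the dark. Per-sample fluorescence was read by flow cytometry after PBS dilution. MIC was taken from the antibiotic concentration–fluorescence curve.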

Ec ATCC 25922 [4] = experiment: FaAST (FDAA metabolic labeling); type: cell-based, Escherichia coli; settings: unit assumed
Method in brief: as §5

P. aeruginosa Pa2 = experiment: BMD susceptibility test; type: cell-based, Pseudomonas aeruginosa; settings: unit assumed
E. coli Ec13 = experiment: BMD susceptibility test; type: cell-based, Escherichia coli; settings: unit assumed
E.coli 1113 = experiment: Vitek 2 drug sensitivity test; type: cell-based, Escherichia coli; for Sensibility: key: S: Drug sensitive; R: Drug resistance
E. faecalis ATCC29212 = experiment: BMD susceptibility test; type: cell-based, Enterococcus faecalis; settings: unit assumed
K. pneumoniae Kp6 = experiment: FaAST (FDAA metabolic labeling); type: cell-based, Klebsiella pneumoniae; settings: unit assumed
Method in brief: (§6)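 Bacteria at OD600=0.05 in CAMHB mixed with antibiotic dilutions plus Cy5-DAA probe at 0.15 mM final, then incubated 2 h in the dark. Cell-wall labeling fluorescence measured by flow cytometry after PBS dilution.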

K. pneumoniae Kp9 = experiment: FaAST (FDAA metabolic labeling); type: cell-based, Klebsiella pneumoniae; settings: unit assumed
Method in brief: as §6

Pa ATCC 27853 = experiment: BMD susceptibility test; type: cell-based, Pseudomonas aeruginosa; settings: unit assumed
[5] = system: bacteria contained in alveolar lavage fluid; experiment: FDAA metabolic labeling susceptibility test of alveolar lavage fluid (Cy5-DAA probe); type: cell-based; settings: alveolar lavage fluid of patients with hospital acquired pneumonia, 2 hours
Description: as §1

[6] = system: Enterococcus faecium EFM26; experiment: VITEK drug sensitivity test; type: cell-based; settings: unit assumed
Ec ATCC 25922 [7] = experiment: BMD susceptibility test; type: cell-based, Escherichia coli; settings: unit assumed
P. aeruginosa Pa3 = experiment: BMD susceptibility test; type: cell-based, Pseudomonas aeruginosa; settings: unit assumed

For `C[C@H]1COc2c(N3CCN(C)CC3)c(F)cc3c(=O)c(C(=O)O)cn1c23` [Levofloxacin, levofloxacin], the MIC, FaAST [1] was 0.5 µg/mL (≈ 1.38 µM), the MIC, FaAST [2] was 32 µg/mL (≈ 88.6 µM) and the MIC, VITEK [3] was 16 µg/mL (≈ 44.3 µM). The FaAST (MIC) (S. aureus Sa22) was 32 µg/mL, the FaAST (MIC) (S. aureus Sa23) was 1 µg/mL and the FaAST (MIC) (S. aureus ATCC29213) was 0.5 µg/mL. The FaAST (MIC) (E. coli Ec11) was 0.5 µg/mL, the FaAST (MIC) (Ec ATCC 25922 [4]) was ≤ 0.25 µg/mL and the BMD (MIC) (P. aeruginosa Pa2) was 0.5 µg/mL. For the same compound, the BMD (MIC) (E. coli Ec13) was 4 µg/mL, the MIC, Vitek 2 (E.coli 1113) was > 8 µg/mL and the Sensibility (E.coli 1113) was “R”. For the same compound, the BMD (MIC) (E. faecalis ATCC29212) was 1 µg/mL, the FaAST (MIC) (K. pneumoniae Kp6) was 0.5 µg/mL and the FaAST (MIC) (K. pneumoniae Kp9) was 128 µg/mL. For the same compound, the BMD (MIC) (Pa ATCC 27853) was 0.5 µg/mL, the “MIC, FDAA” value [5] was ≥32 µg/mL and the MIC, VITEK [6] was ≥ 256 µg/mL. The BMD (MIC) (Ec ATCC 25922 [7]) was ≤ 0.25 µg/mL and the BMD (MIC) (P. aeruginosa Pa3) was 0.5 µg/mL.

— US20240240224A1, “FLUORESCENT D-TYPE AMINO ACID METABOLISM MARKER-BASED METHOD FOR DETECTING ANTIBACTERIAL DRUG SENSITIVITY TEST” (priority 2020, published 2024)
